We go through 3 compounds from US20090203050A1 (The Regents of the University of California, priority 2005, published 2009).

One data set deals with Ramos-RR1. Kind of data set: DNA fragmentation (PI) apoptosis assay, Ramos-RR1. How it is done:
(§1) Percentage of apoptotic cells was determined by evaluation of propidium iodide (PI) stained preparations of cells using an EpicXL flow-cytometer. Cellular debris was excluded from analysis by raising the forward scatter threshold, and DNA content of the intact nuclei was recorded on a logarithmic scale (Nicoletti, I. et al., J. Immunol. Methods, 139:271-9 (1991)). Percent apoptosis is represented as percentage of hypodiploid cells accumulated at sub-G0 phase of cell cycle.
(§2) Cells were left either untreated or pre-treated with DHMEQ (36), bortezomib (Goy, A. et al., Clin. Lymphoma, 4:230-7 (2004)) and PD098059 (Alessi, D. et al., J. Biol. Chem., 270:27489-94 (1995)). Escalating concentrations of various drugs were then added and the percentage of apoptosis was measured.

The subject of data set [1] is p38MAPK/NF-κB/YY1/STAT3 signaling pathways, Bcl-2. Kind of data set: Molecular analysis of signaling in 2F7RR1. The data set is classed as cell-based. Conditions: 2F7-RR1. The source says:
(§3) Accordingly, we examined whether inhibition of Bcl-2 in 2F7RR1 can reverse chemoresistance. Since Bcl-2 is under the transcriptional regulation of NFκB, we examined the effect of the NF-κB inhibitors Bortezomib and DHMEQ (Kikuchi, et al., Cancer Research, 63:107 (2003)).
(§4) The mechanism by which B-NHL patients resist treatment is not known. […] We examined the effect of various chemical inhibitors of this signaling pathway on chemosensitization.

The subject of data set [2] is 2F7, Ramos and Daudi wild type and RR clones. Kind of data set: TRAIL-mediated apoptosis in B-NHL cell lines and RR clones (DNA fragmentation). The class given is cell-based, human. The note with it: inhibitor pretreatment 2 h, then TRAIL 18 h; rituximab-sensitive and -resistant cells. The source says: Patients with B-NHL respond initially to conventional chemotherapy and/or to immunotherapy with rituximab (alone or in combination with chemotherapy). However, patients develop resistance to these modalities and novel approaches are needed. TRAIL is a cytotoxic molecule that exerts selective anti-tumor cytotoxic activity with minimal toxicity to normal tissues. Further, TRAIL or agonist monoclonal antibody (mAb) to TRAIL receptors, DR4 and DR5, are currently being tested clinically. The present study investigated the sensitivity of B-NHL cell lines to TRAIL-mediated apoptosis using the AIDS-related NHL (ARL) B-cell line, 2F7, and the B-NHL cell lines, Ramos and Daudi. Also, to recapitulate various aspects of acquired rituximab-resistance, we have generated rituximab-resistant (RR) clones from the parental wild type (wt) cells. […] We then examined means to reverse […] resistance. We and others have reported that inhibition of NFκB activity can sensitize TRAIL-resistant tumor cells to TRAIL-induced apoptosis. […] Both the rituximab-sensitive and rituximab-resistant tumor cells were sensitized by these inhibitors, though higher concentrations were required for sensitization of the RR clones. […] Based on the findings, patients with resistant B-NHL can be treated with combination of TRAIL/anti-DR4 or DR5 mAb and NFκB inhibitors. Alternatively, these patients can be treated with agents that up-regulate TRAIL expression on host effectors (e.g., T cells, NK cells) in combination with NFκB inhibitors.

A further data set deals with NF-κB and AP-1 DBA. Description: EMSA in RR clones. The data set is classed as cell-based, human. On the procedure: FIG. 8. […] A. Total cell lysates (40 μg) were subjected to western blot analysis using phospho-specific Abs for various components of the NF-κB and ERK1/2 pathways. B. The kinase activity of the IKK complex using IκB-α peptide (aa 1-50 including S^32/36) and ERK1/2 using MAPK kinase substrates 4 (aa 172-192) using immune-complex kinase assay. C. […] 10 μg of nuclear lysates were subjected to EMSA (n=2) (19, 20).
The DBAs were evaluated using biotin-labeled oligonucleotide AP-1 (5′-[…]-3′) (Lee, W et al., Cell, 49:741-52 (1987)) and NF-κB (5′-[…] […]-3′) probes (Harada, H. et al., Mol. Cell Biol., 14:1500-9 (1994)) using EMSA kit (Panomics, Inc., Redwood City, Calif.) according to manufacturer's instructions. 10 μg of nuclear extracts were subjected to […] 5% PAGE and developed (Jazirehi, A. et al., Cancer Research, 64:7117-26 (2004); Jazirehi, A. et al., Cancer Research, 65:264-76 (2005)).
Next, alterations in the DBA of NF-κB and AP-1 in the clones were examined.

The test system of a further data set is Daudi-RR1. Kind of data set: DNA fragmentation (PI) apoptosis assay, Daudi-RR1. How it is done: as §1, §2
For the next data set, the system named is 2F7RR1 clone. Description: Chemotherapeutic drug-induced apoptosis in 2F7RR1. The data set is classed as cell-based.
Source text: as §3, §4

Another data set concerns RR clones. Kind of data set: DNA fragmentation apoptosis assay, RR clones (pooled statements). The class given is cell-based, human. The note with it: drugs e.g. Paclitaxel, Vincristine, VP-16, CDDP, Adriamycin. How it is done:
Thus, we examined if such sensitizing agents can reverse the resistance in the RR clones.
as §1, §2

A further data set relates to Ramos and Daudi. Conditions: ERK1/2 pathway inhibitors; cited from earlier work.
Data set [3] deals with PI3K/Akt signaling pathway in Ramos. Kind of data set: Western blot of phosphorylated and unphosphorylated Akt / NF-κB pathway proteins in Ramos. The class given is cell-based, human. Conditions: rituximab 138 nM or (Fab′)2, 20 h.
Method: After stimulation, cells (2×10^6 cells) were collected and resuspended with lysis buffer (20 mM Tris-HCl (pH 8.0), 2 mM EDTA, 3% NP-40, 100 mM NaCt, 50 mM NaF, 1 uM PMSF, 1 uM VO4, 5 ug/ml aprotinin, 5 ug/ml leupeptin). After 30 min of incubation on ice, samples were centrifuged at 10,000×g, for 10 min at 4° C. to remove cellular debris. […] The membranes were blocked for 30 min with 5% non-fat dry milk diluted in 0.05% Tween-20 Tris-buffered saline at room temperature and incubated overnight with the primary antibodies. After incubation with the primary antibody against Akt (1:300), Bad, PDK1, (1:500), phospho-specific antibodies against phospho-Akt (Ser 473, Thr 308) (1:300), phospho-PDK1 and phospho-Bad (Serl 36) (both 1:300) for overnight, the membranes were washed and incubated with HRP-coupled secondary antibodies (Cell Signaling, MA, USA). Immunoreactive bands were detected using an enhanced chemiluminiscence system (Amersham Pharmacia Biotech, UK).
The subject of another data set is Ramos cells. Description: PI flow cytometry apoptosis, chemosensitization of Ramos. The data set is classed as cell-based, human. Conditions: pretreatment then CDDP 15 μg/ml 24 h. In general terms: A flow cytometer gives signals particle by particle.

“Also recorded” adds a separate entry of the source.

Method for Ramos cells: The cells were then washed and fresh medium was added and seeded into 12 well plates (Costar, Cambridge, Mass.). Indicated concentrations of drugs (CDDP, ADR) were then added, and the cells were incubated for another 24 h for maximal cytotoxicity. At the end of the incubation period, the cells were harvested and subjected to propidium iodide (PI) (Molecular Probes, Leiden, Netherlands) staining according to the specifications of the PI staining kit (Roche Diagnostics Corporation, Indianapolis, Ind.) and evaluated by flow cytometric analysis. LY294002 was dissolved in DMSO (Sigma-Aldrich) and added up to 50 uM.
DNA fragmentation was detected by flow cytometric analysis after propidium iodide staining (Alas, S. et al., Cancer Res., 61:5137-44 (2001)). Cells with fragmented DNA were considered as apoptotic. […] Fluorescence was measured on a FACScan flow cytometer (BD Immunocytometry Systems) within 1 h. […] Cellular debris were excluded from analysis by raising the forward scatter threshold, and the DNA content of the intact nuclei was recorded on a logarithmic scale. […]
Ramos B-NHL cells were cultured in 1 ml of Opti-MEM medium without antibiotics and FBS. […] To determine Akt siRNA-induced sensitization to CDDP-induced apoptosis, following transfection the cells were treated with CDDP for 24 h, then fixed and permeabilized for PI staining, and analyzed by flow cytometry as described above.

Turning to `O=C(NC1=CC(=O)[C@H]2O[C@H]2[C@H]1O)c1ccccc1O` [DHMEQ, dehydroxymethylepoxyquinomicin], the “enhanced cytotoxicity of drugs by inhibitor” value in the data set on Ramos-RR1 is 2.3-5.1 folds; with Daudi-RR1 it was 1.4-3.3 folds. Besides, the “apoptosis, DHMEQ alone” value in the data set with Ramos-RR1 (Ramos-RR1, DHMEQ 20 μg/ml) is 10.1±2.1%; with Daudi-RR1 (Daudi-RR1, DHMEQ 20 μg/ml) it was 4.9±1.6%. Also, in data set [1], the “effect on NF-kB, YY1 and Bcl-2 expression” value is “inhibition of NF-kB, YY1 and downregulated Bcl-2 expression”. Further, the “sensitization to TRAIL-induced apoptosis” value in data set [2] was “significant augmentation of apoptosis and synergy was achieved”. Moreover, the “NF-κB and AP-1 DBA (EMSA)” value with NF-κB and AP-1 DBA is reported as “preferentially reduced”. For the same compound, the “chemosensitization to drug-induced apoptosis (taxol, vincristine, ADR, CDDP, VP16)” value in the data set on 2F7RR1 clone is recorded as “reversal of resistance; also recorded: significantly sensitized”. Further, in the data set with RR clones, the “sensitization of RR clones to various chemotherapeutic drugs” value is listed as “sensitized”.

Regarding `COc1cccc(-c2cc(=O)c3ccccc3o2)c1N` [PD098059, [2-(2′-amino-3′-methoxyphenyl)-oxanaphthalen-4-one]], the “enhanced cytotoxicity of drugs by inhibitor” value is given as 1.8-3.1 folds in the data set on Ramos-RR1 and 1.5-2.7 folds in the data set with Daudi-RR1. Further, the “sensitization to drug-induced apoptosis” value in the data set on Ramos and Daudi is on record as “also sensitize the cells”. Moreover, the “NF-κB and AP-1 DBA (EMSA)” value in the data set on NF-κB and AP-1 DBA is “preferentially reduced”. For the same compound, in the data set on RR clones, the “sensitization of RR clones to various chemotherapeutic drugs” value was “sensitized”.

For “Rituximab (Fab′)2: Fc-devoid Rituximab (Fab′)2”, the “effect on p-Akt (western)” value in data set [3] was “also inhibited p-Akt like rituximab”. Moreover, the “sensitization to CDDP-induced apoptosis” value with Ramos cells is listed as “sensitize the cells significantly”.
